Read-outs that look alike come from different tables or passages of the source.
Legend:
Type in all cases: biochemical
[1] = biological target: T1, hSULT1A1 (Homo sapiens, UniProt P50225); test: Fluorescence-based microplate inhibition assay, hSULT1A1-catalyzed HN-241 4-O-sulfation; conditions: for activity at 1 µM: read-out: Residue activity (%) hSULT1A1;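 for all read-outs here: reaction started with 200 µM PAPS at 37 °C, fluorescence read continuously (Ex 350 nm, Em 450 nm), activity expressed relative to DMSO-only control without inhibitor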
T1 construct: 6-histidine tag (N); TEV site (N); made in house; host or cells: Escherichia coli BL21 (DE3), pET29a(+)

[2] = biological target: T2, hSULT1A3 (Homo sapiens, UniProt P0DMM9); test: Fluorescence-based microplate inhibition assay, hSULT1A3-catalyzed HN-241 4-O-sulfation; conditions: for activity at 10 µM: read-out: Residue activity (%) hSULT1A3
T2 construct: 6-histidine tag (N); TEV site (N); made in house; host or cells: Escherichia coli BL21 (DE3), pET29a(+)

[3] = biological target: T3, hSULT1A2 (Homo sapiens, UniProt P50226); test: Fluorescence-based microplate inhibition assay, hSULT1A2-catalyzed HN-241 4-O-sulfation; conditions: for remaining activity at 10 µM: 0.25 h, read-out: Residue activity (%) hSULT1A2
T3 construct: 6-histidine tag (N); TEV site (N); made in house; host or cells: Escherichia coli BL21 (DE3), pET29a(+)

[4] = test compound 1 μM, HN-241 1 μM, 15 min
[5] = test compound 10 μM, HN-241 10 μM, 15 min
[6] = test compound 10 μM, HN-241 5 μM, 15 min

T2 sequence (P0DMM9 whole entry): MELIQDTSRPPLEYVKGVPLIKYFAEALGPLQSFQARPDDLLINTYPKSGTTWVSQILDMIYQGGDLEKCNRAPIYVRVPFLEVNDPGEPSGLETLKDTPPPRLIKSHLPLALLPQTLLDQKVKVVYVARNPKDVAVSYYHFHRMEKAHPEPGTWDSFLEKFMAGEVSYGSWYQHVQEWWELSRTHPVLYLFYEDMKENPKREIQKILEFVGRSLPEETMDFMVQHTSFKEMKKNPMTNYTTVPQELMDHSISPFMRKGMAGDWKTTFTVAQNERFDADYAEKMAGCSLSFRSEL
T3 sequence (P50226 whole entry): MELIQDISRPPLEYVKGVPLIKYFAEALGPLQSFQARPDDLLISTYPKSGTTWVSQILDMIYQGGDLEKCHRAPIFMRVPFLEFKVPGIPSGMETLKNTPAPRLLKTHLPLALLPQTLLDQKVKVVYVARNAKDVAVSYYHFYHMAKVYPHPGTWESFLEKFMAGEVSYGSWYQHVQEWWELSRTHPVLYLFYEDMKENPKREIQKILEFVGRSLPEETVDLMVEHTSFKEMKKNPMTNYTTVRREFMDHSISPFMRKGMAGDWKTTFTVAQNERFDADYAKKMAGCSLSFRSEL
T1 sequence (P50225 whole entry): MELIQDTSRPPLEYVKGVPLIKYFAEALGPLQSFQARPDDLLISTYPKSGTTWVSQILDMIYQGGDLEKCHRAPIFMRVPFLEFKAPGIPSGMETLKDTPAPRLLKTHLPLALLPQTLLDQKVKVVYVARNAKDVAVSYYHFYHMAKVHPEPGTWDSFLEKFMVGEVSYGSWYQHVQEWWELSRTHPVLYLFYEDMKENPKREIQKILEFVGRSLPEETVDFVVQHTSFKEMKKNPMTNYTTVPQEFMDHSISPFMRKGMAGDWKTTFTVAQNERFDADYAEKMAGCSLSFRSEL

Molecule	activity at 1 µM [1, 4]	activity at 10 µM [2, 5]	remaining activity at 10 µM [3, 6]	Residue activity (%) hSULT1A1 [1, 4]	Residue activity (%) hSULT1A3 [2, 5]	Residue activity (%) hSULT1A2 [3, 6]	also measured
O=C1C[C@@H](c2ccc(O[C@@H]3O[C@H](CO)[C@@H](O)[C@H](O)[C@H]3O)cc2)Oc2cc(O)ccc21 [Liquiritin]	100%	100%	95.1%	–	–	–	–
C[C@@H]1[C@H]2[C@H](O[C@@H]3O[C@H](CO)[C@@H](O)[C@H](O)[C@H]3O)OC=C(C(=O)O)[C@H]2C[C@@H]1O [Loganic acid]	128%	119%	98.6%	–	–	–	–
COc1cc(OC)c(CCC(=O)c2ccc(O)cc2)c(OC)c1 [Loureirin B]	–	–	–	5.84%	71.91%	6.16%	–
COC(=O)/C=C/c1ccc(O)c(O)c1 [Methyl caffeate acid]	–	–	–	9.01%	44.99%	12.99%	–
Cc1c(O)c(C)c2c(c1O)C(=O)[C@H](Cc1ccc3c(c1)OCO3)CO2 [Methylophiopogonanone A]	–	–	–	28.87%	79.90%	0.52%	–
O=c1c(O)c(-c2ccc(O)cc2O)oc2cc(O)cc(O)c12 [Morin]	50.7%	55.7%	4.73%	–	–	–	–
CC(C)=CCc1c(-c2ccc(O)cc2O)oc2c(CC=C(C)C)c(O)cc(O)c2c1=O [Mulberrin]	–	–	–	53.37%	70.86%	143.65%	–
O=c1c(O)c(-c2cc(O)c(O)c(O)c2)oc2cc(O)cc(O)c12 [Myricetin]	0.08%	39.8%	4.43%	–	–	–	–
COc1cc(-c2oc3cc(O)cc(O)c3c(=O)c2O[C@@H]2O[C@H](CO[C@@H]3O[C@@H](C)[C@H](O)[C@@H](O)[C@H]3O)[C@@H](O)[C@H](O)[C@H]2O)ccc1O [Narcissoside]	–	–	–	99.20%	60.08%	86.78%	–
O=C(/C=C/c1ccc(O[C@@H]2O[C@H](CO)[C@@H](O)[C@H](O)[C@H]2O)cc1)c1ccc(O)cc1O [Neoisoliquiritigenin]	–	–	–	91.36%	108.00%	84.48%	–
CC1(C)CC[C@]2(C(=O)O)CC[C@]3(C)C(=CC[C@@H]4[C@@]5(C)CC[C@H](O)C(C)(C)[C@@H]5CC[C@]43C)[C@@H]2C1 [Oleanolic acid]	127%	114%	101%	–	–	–	–
CCCCCCCCCCCCCCCC(=O)O [Palmitic acid]	93.1%	113%	84.8%	–	–	–	–
COc1ccc(-c2cc(=O)c3c(O)c(OC)c(O)cc3o2)cc1 [Pectolinarigenin]	1.12%	1.34%	0%	–	–	–	IC50 ([1]; hSULT1A1-catalyzed HN-241 4-O-sulfation): 0.00952 ± 0.00039 µM; IC50 ([2]; hSULT1A3-catalyzed HN-241 4-O-sulfation): 4.36 ± 0.252 µM; IC50 ([3]; hSULT1A2-catalyzed HN-241 4-O-sulfation): 0.0872 ± 0.00316 µM
COc1cc([C@@H]2c3cc4c(cc3[C@H](O)[C@H]3COC(=O)[C@H]23)OCO4)cc(OC)c1OC [Podophyllotoxin]	–	–	–	–	–	–	activity at 1 µM [1]: 110%; activity at 10 µM [2]: 111%; remaining activity at 10 µM [3]: 88.9%
O=c1c(O)c(-c2ccc(O)c(O)c2)oc2cc(O)cc(O)c12 [Quercetin, reference compound]	0%	39.9%	0.1%	–	–	–	–
C[C@]12CC[C@H](O)C[C@H]1CC[C@@H]1[C@@H]2CC[C@]2(C)[C@@H](c3ccc(=O)oc3)C[C@H]3O[C@]132 [Resibufogenin]	–	–	–	–	–	–	activity at 1 µM [1]: 127%; activity at 10 µM [2]: 113%; remaining activity at 10 µM [3]: 99.2%
O=C(O)c1cc(O)c2c(c1)C(=O)c1cccc(O)c1C2=O [Rhein]	59.4%	96.9%	0.83%	–	–	–	–
C=C(C)[C@H]1Cc2c(ccc3c2O[C@@H]2COc4cc(OC)c(OC)cc4[C@@H]2C3=O)O1 [Rotenone]	–	–	–	–	–	–	activity at 1 µM [1]: 109%; activity at 10 µM [2]: 106%; remaining activity at 10 µM [3]: 102%
COc1cc2c(c(OC)c1OC)-c1c(cc(OC)c(OC)c1OC)C[C@](C)(O)[C@@H](C)C2 [Schisandrin]	–	–	–	129.29%	123.25%	102.92%	–

Molecule	activity at 1 µM [1, 4]	activity at 10 µM [2, 5]	remaining activity at 10 µM [3, 6]	Residue activity (%) hSULT1A1 [1, 4]	Residue activity (%) hSULT1A3 [2, 5]	Residue activity (%) hSULT1A2 [3, 6]	also measured
C/C=C(/C)C(=O)O[C@H]1c2cc(OC)c(OC)c(OC)c2-c2c(cc3c(c2OC)OCO3)C[C@H](C)[C@]1(C)O [Schisantherin B]	109%	108%	109%	–	–	–	–
COc1ccc(-c2cc(=O)c3c(O)cc(O)c(-c4cc(-c5cc(=O)c6c(O)cc(OC)cc6o5)ccc4OC)c3o2)cc1 [Sciadopitysin]	–	–	–	27.69%	62.24%	2.03%	–
CC(C)=CC[C@@H](O)C1=CC(=O)c2c(O)ccc(O)c2C1=O [Shikonin]	64.5%	61%	18.6%	–	–	–	–
COC1=C[C@@H]2[C@@H]3Cc4ccc(OC)c(O)c4[C@]2(CCN3C)CC1=O [Sinomenine]	103%	110%	103%	–	–	–	–
O=C1c2c(O)cc(O)cc2OC(c2ccc(O)c(O)c2)C1O (stereo not drawn) [Taxifolin]	3.26%	59.7%	41.7%	–	–	–	–
COc1c(O)cc2occ(-c3ccc(O)cc3)c(=O)c2c1O [Tectorigenin]	4.17%	86.8%	4.26%	–	–	–	–
O=C(O[C@@H]1[C@@H](O)[C@H](Oc2cc(O)c(C(=O)CCc3ccccc3)c(O)c2)O[C@@H]2COC(=O)c3cc(O)c(O)c(O)c3-c3c(cc(O)c(O)c3O)C(=O)O[C@@H]12)c1cc(O)c(O)c(O)c1 [Thonningianin A]	12%	17.6%	3.29%	–	–	–	–
CC(C)[C@]12O[C@H]1[C@@H]1O[C@]13[C@]1(O[C@H]1C[C@H]1C4=C(CC[C@@]13C)C(=O)OC4)[C@@H]2O [Triptolide]	109%	110%	119%	–	–	–	–
O=c1cc(-c2ccc(O)cc2)oc2c([C@@H]3O[C@H](CO)[C@@H](O)[C@H](O)[C@H]3O)c(O)cc(O)c12 [Vitexin]	102%	108%	115%	–	–	–	–
Cc1c2[n+](cc3cc4c(cc13)OCO4)CCc1cc3c(cc1-2)OCO3 [Worenine]	–	–	–	101.91%	125.56%	92.89%	–
C/C1=C\CC(C)(C)/C=C/C(=O)/C(C)=C/CC1 [Zerumbone]	102%	108%	113%	–	–	–	–
CC(C)=CCc1cc(-c2oc3cc(O)cc(O)c3c(=O)c2O)ccc1O [iso-Licoflavonol]	3.31%	62.1%	0.03%	–	–	–	–
O=C(/C=C/c1ccccc1)c1ccccc1 [trans-Chalcone]	–	–	–	71.86%	116.88%	91.40%	–
Ginkgolic acid	–	–	–	12.05%	66.66%	13.44%	–
Gomisin A	–	–	–	129.03%	122.78%	97.44%	–
Hydroxysafflor yellow A	–	–	–	97.09%	99.76%	100.46%	–
Myricitrin	–	–	–	96.68%	110.49%	84.45%	–
Sennosides	–	–	–	26.92%	19.21%	3.06%	–
